Measured values from publication PMC10048804, “Coumarin-Based Compounds as Inhibitors of Tyrosinase/Tyrosine Hydroxylase: Synthesis, Kinetic Studies, and In Silico Approaches” (International Journal of Molecular Sciences, 2023).
Entries after “also recorded” stand apart in the source; their conditions may differ. Where two headings read alike, the source gives them in different places.

What was measured:
mushroom tyrosinase [1] = biological target: T1, mushroom tyrosinase (Agaricus bisporus, UniProt C7FF04); assay: Kinetic analysis of the inhibition of tyrosinase (Lineweaver-Burk plots); assay type: biochemical; design: purchased Sigma-Aldrich; settings: L-DOPA substrate
Procedure: The mechanism for tyrosinase inhibition of the tested compounds was determined from Lineweaver–Burk double reciprocal plots. The plot provides a useful graphical method for analysis of the Michaelis–Menten equations used to determine the Km values for possible competitive, uncompetitive, non-competitive, and mixed mechanisms of inhibition. All Lineweaver–Burk plots can be found in the Supplementary Information. As can be easily noticed, the majority of tested compounds are characterized by the mixed mode of inhibition (Table 2). It is a type of enzyme inhibition in which the inhibitor may bind to the enzyme whether or not the enzyme has already bound to the substrate.
A series of experiments was performed to determine the inhibition kinetics of the tested compounds following the already reported method. The inhibitor concentrations for the tested compounds were 0.05 and 0.1 mM. The substrate L-DOPA concentration was between 0.1 and 0.25 mM in all kinetic studies, but for the FN-06 and FN-27 compounds, concentrations between 0.15 and 0.3 mM were used. Maximal initial velocity was determined from the initial linear portion of absorbance up to ten minutes after the addition of the enzyme. The inhibition type of the enzyme, Michaelis constant (Km), and maximal velocity (Vmax) were determined using Lineweaver–Burk plots of the inverse of velocities (1/V) versus the inverse of substrate concentration 1/[L-DOPA] mM^−1.
Target sequence in this assay (C7FF04 1-392 limits assumed): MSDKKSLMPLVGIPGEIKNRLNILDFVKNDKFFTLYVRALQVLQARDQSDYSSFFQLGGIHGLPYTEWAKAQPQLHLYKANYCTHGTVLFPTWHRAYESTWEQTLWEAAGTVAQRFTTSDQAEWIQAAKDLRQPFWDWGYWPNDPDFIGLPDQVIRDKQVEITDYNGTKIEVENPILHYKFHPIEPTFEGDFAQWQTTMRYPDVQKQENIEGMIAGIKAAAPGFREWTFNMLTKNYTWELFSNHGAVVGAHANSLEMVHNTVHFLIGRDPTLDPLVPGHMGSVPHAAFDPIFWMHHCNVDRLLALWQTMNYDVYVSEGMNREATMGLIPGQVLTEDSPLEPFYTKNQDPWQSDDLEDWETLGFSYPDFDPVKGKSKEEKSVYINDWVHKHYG

mushroom tyrosinase [2] = settings: ref [39],[40],[41]; cited from earlier work
B16F10 cells = settings: ref [39],[40],[41]; cited from earlier work
[3] = system: cellular tyrosinase in B16F10 cells; settings: ref [39],[40],[41]; cited from earlier work
mushroom tyrosinase [4] = biological target: T1, mushroom tyrosinase; assay: Mushroom tyrosinase inhibition assay (L-DOPA substrate, dopachrome at 475 nm); assay type: biochemical
Procedure: All compounds were tested for their inhibitory effects on mushroom tyrosinase using L-DOPA as substrate. In general, the results were compared with standard tyrosinase inhibitors, such as kojic acid and ascorbic acid. […]. The mushroom tyrosinase (Sigma-Aldrich) inhibition was performed following previously reported methods. All assays were carried out with solutions containing phosphate buffer (50 mM, pH 6.8), L-DOPA (0.17 mM), EDTA (0.022 mM), tyrosinase (50–100 units), and varying concentrations of compounds, and were performed in triplicate at room temperature. The inhibitor solutions were prepared in DMSO with an initial concentration of 1 mM. Different aliquots were added to the solution containing buffer, L-DOPA, and EDTA, the enzyme being added in the end. The formation of dopachrome was determined by monitoring the absorbance at 475 nm with a T60U spectrophotometer (PG Instruments) equipped with quartz cells of 1 cm path length. Kojic acid and ascorbic acid were used as reference inhibitors with an initial concentration of 1 mM. The IC50 values were calculated from the equation generated with an exponential fit of the experimental data. […]
Target sequence in this assay (C7FF04 2-392): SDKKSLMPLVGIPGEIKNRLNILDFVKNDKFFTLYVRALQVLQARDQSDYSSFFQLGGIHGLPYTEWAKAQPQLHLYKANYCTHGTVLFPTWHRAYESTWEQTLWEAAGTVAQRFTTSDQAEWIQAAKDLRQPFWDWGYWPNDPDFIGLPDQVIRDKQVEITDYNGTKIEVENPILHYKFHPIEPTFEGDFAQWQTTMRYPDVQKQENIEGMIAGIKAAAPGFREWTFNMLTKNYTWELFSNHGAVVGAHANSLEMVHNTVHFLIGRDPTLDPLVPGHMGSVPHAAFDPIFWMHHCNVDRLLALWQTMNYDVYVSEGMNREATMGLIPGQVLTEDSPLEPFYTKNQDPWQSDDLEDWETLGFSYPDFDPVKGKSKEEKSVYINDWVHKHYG

tyrosinase [5] = settings: cited from earlier work
intracellular tyrosinase = system: intracellular tyrosinase; design: method as in PMID 35063859; settings: ref [45], cited from earlier work
production of melanin = system: production of melanin; design: method as in PMID 35063859; settings: ref [45]; cited from earlier work
tyrosinase [6] = biological target: T2, tyrosinase (Agaricus bisporus, UniProt C7FF04); assay: UV-Vis spectra of L-DOPA oxidation by tyrosinase in absence and presence of inhibitor; assay type: biochemical, mushroom; settings: after 30 min, versus L-DOPA with tyrosinase
T2 construct: purchased Sigma-Aldrich
T2 sequence (C7FF04 1-392 limits assumed): as the sequence (C7FF04 1-392 limits assumed) above
Procedure: The remaining compound FN-40 is a competitive inhibitor, which binds to the enzyme at its active site, preventing the binding of the substrate to the enzyme. […] To observe the effect of the oxidation of L-DOPA by tyrosinase in the absence and presence of the tested compounds, the UV-Vis spectra were determined. During L-DOPA oxidation by tyrosinase, a characteristic signal at 475 nm is observed in the UV-Vis spectrum, corresponding to the formation of dopachrome.

Compound | Inhibitory Mechanism (mushroom tyrosinase [1]; compound at 0.1 mM) | melting point | also measured
O=c1oc2cc(O)cc(O)c2cc1-c1ccc(Br)cc1 [Compound 3] | – | – | IC50 (mushroom tyrosinase [2]): 1050 ± 56 nM; melanin production (B16F10 cells): able to inhibit; cellular tyrosinase activity [3]: able to inhibit
COc1cccc2cc(/C(C)=N/NC(=O)c3ccncc3)c(=O)oc12 [FN-29, (13E)-N’-(1-(8-Methoxy-2-oxo-2H-chromen-3-yl)ethylidene)isonicotinohydrazide] | Mixed | 202 to 206 °C | solubility in the tyrosinase assay (mushroom tyrosinase [4]; in words): not soluble
(E)-N’-(4-(dimethylamino)benzylidene)-2-methylene-2H-chromene-3-carbohydrazide [FN-11] | Mixed | – | IC50 (mushroom tyrosinase [4]; mushroom tyrosinase, L-DOPA 0.17 mM as substrate, pH 6.8, triplicate, room temperature): 159000 nM
COc1cc(C2CC(c3cc4ccccc4oc3=O)=NN2c2nc(-c3ccc(Br)cc3)cs2)ccc1OCc1ccccc1 (stereo not shown) [Compound 5] | – | – | IC50 (tyrosinase [5]; ref [43]): 4.58 ± 0.22 nM
CC(C)=CC(=O)O[C@H]1Cc2cc3ccc(=O)oc3cc2OC1(C)C [Compound 7, decursin] | – | – | %Tyrosine inh. (intracellular tyrosinase; at 30 μM): 59.8 ± 0.6%; intracellular activity of tyrosinase (intracellular tyrosinase): decreases; production of melanin (production of melanin): reduces
C/C(=N\NC(N)=S)c1cc2ccc(O)cc2oc1=O [FN-19, (1E)-1-(1-(7-Hydroxy-2-oxo-2H-chromen-3-yl)ethylidene)thiosemicarbazide] | mixed inhibitor; also recorded: mixed mode | – | signal intensity at 475 nm (dopachrome formation) (tyrosinase [6]): significant reduction; also recorded: significantly reduce
O=c1oc2cc(O)cc(O)c2cc1-c1cccs1 [Compound 1] | – | – | IC50 (mushroom tyrosinase [2]): 150 ± 28 nM
O=c1oc2cc(O)cc(O)c2cc1-c1cc(Br)cs1 [Compound 2] | – | – | IC50 (mushroom tyrosinase [2]): 380 ± 84 nM; melanin production (B16F10 cells): able to inhibit; cellular tyrosinase activity [3]: able to inhibit
CC(C)=CCOc1c2occc2cc2ccc(=O)oc12 [Compound 6, marmelosin] | – | – | IC50 (tyrosinase [5]; ref [44]): 20300 ± 1260 nM

The next lines start with results.

Inhibitory Mechanism (mushroom tyrosinase [1]; compound at 0.1 mM) | melting point | Compound | also measured
Mixed | – | COc1cccc2cc(C(C)=O)c(=O)oc12 [FN-07, 3. -Acetyl-8-methoxy-2H-chromen-2-one] | –
mixed inhibitors | – | CC(=O)c1cc2ccc(O)cc2oc1=O [FN-06, 3. -Acetyl-7-hydroxy-2H-chromen-2-one] | –
mixed inhibitors | – | COc1cccc2cc(/C(C)=N/NC(N)=S)c(=O)oc12 [FN-27, (1E)-1-(1-(8-Methoxy-2-oxo-2H-chromen-3-yl)ethylidene)thiosemicarbazide] | –
Mixed | 226 to 229 °C | C/C(=N\NC(N)=O)c1cc2ccc(O)cc2oc1=O [FN-17, (1E)-1-(1-(7-Hydroxy-2-oxo-2H-chromen-3-yl)ethylidene)semicarbazide] | –
– | 111 to 112 °C | CN(C)c1ccc(/C=C/C(=O)c2cc3ccccc3oc2=O)cc1 [FN-10, 3. -((E)-3-(4-(Dimethylamino)phenyl)acryloyl)-2H-chromen-2-one] | Inhibitory Mechanism (mushroom tyrosinase [1]; compound at 0.05 mM): mixed inhibitors
Noncompetitive | 157 to 159 °C | CC(=O)c1cc2ccc(C)cc2oc1=O [MP-04, 3. -Acetyl-7-methyl-2H-chromen-2-one] | –
Mixed | – | CC(=O)c1cc2ccccc2oc1=O [MP-05, 3. -Acetyl-2H-chromen-2-one] | –
Competitive | – | CC(=O)c1cc2cc(Br)ccc2oc1=O [FN-40] | –
Uncompetitive | 201 to 203 °C | CC(=O)c1cc2cc([N+](=O)[O-])ccc2oc1=O [MP-03, 3. -Acetyl-6-nitro-2H-chromen-2-one] | –
Mixed | 240 to 242 °C | COc1cccc2cc(/C(C)=N/NC(N)=O)c(=O)oc12 [FN-25, (1E)-1-(1-(8-Methoxy-2-oxo-2H-chromen-3-yl)ethylidene)semicarbazide] | –
